From US20250135006A1, “AMPHIPHILIC TLR7/8 ADJUVANTS AND USES THEREOF” (Pfizer Inc., priority 2023, published 2025)

Tests used:
[1] = target: T1, human toll like receptor 8 (hTLR8) (Homo sapiens, UniProt Q9NR97); experiment: hTLR8 in-vitro functional assay (HEK-Blue hTLR8 SEAP reporter); assay type: cell-based; details: HEK-Blue hTLR8 cells, overnight incubation
T1 construct: host or cells: HEK293 (HEK-Blue hTLR8)
T1 sequence (Q9NR97 27-1041): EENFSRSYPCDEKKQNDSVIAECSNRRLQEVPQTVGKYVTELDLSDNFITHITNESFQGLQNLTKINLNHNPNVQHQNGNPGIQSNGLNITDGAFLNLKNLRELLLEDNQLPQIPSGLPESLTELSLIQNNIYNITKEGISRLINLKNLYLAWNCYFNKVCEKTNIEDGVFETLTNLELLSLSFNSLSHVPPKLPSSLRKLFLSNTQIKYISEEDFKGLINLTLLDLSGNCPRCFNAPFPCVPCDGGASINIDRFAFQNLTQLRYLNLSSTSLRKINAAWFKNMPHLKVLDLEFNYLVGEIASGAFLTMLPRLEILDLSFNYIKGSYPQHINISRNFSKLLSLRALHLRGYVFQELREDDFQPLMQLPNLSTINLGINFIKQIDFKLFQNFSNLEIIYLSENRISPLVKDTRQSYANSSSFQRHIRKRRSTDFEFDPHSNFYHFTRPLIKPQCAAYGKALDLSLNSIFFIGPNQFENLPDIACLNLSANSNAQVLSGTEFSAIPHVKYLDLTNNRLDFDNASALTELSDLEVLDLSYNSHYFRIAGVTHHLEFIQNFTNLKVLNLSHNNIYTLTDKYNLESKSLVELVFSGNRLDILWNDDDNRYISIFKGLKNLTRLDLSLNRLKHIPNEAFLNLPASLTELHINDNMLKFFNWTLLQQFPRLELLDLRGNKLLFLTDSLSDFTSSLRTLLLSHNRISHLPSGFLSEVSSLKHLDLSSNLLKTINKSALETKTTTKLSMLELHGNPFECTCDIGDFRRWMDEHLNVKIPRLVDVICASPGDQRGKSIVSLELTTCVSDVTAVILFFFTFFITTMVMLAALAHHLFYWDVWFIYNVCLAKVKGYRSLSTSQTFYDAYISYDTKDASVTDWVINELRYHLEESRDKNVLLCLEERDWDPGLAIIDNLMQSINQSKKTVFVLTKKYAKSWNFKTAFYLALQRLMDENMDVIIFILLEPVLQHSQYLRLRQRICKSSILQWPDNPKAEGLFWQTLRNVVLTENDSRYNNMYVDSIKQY

[2] = target: T2, human toll like receptor 7 (hTLR7) (Homo sapiens, UniProt Q9NYK1); experiment: hTLR7 in-vitro functional assay (HEK-Blue hTLR7 SEAP reporter); assay type: cell-based; details: HEK-Blue hTLR7 cells, overnight incubation
T2 construct: host or cells: HEK293 (HEK-Blue hTLR7)
T2 sequence (Q9NYK1 27-1049): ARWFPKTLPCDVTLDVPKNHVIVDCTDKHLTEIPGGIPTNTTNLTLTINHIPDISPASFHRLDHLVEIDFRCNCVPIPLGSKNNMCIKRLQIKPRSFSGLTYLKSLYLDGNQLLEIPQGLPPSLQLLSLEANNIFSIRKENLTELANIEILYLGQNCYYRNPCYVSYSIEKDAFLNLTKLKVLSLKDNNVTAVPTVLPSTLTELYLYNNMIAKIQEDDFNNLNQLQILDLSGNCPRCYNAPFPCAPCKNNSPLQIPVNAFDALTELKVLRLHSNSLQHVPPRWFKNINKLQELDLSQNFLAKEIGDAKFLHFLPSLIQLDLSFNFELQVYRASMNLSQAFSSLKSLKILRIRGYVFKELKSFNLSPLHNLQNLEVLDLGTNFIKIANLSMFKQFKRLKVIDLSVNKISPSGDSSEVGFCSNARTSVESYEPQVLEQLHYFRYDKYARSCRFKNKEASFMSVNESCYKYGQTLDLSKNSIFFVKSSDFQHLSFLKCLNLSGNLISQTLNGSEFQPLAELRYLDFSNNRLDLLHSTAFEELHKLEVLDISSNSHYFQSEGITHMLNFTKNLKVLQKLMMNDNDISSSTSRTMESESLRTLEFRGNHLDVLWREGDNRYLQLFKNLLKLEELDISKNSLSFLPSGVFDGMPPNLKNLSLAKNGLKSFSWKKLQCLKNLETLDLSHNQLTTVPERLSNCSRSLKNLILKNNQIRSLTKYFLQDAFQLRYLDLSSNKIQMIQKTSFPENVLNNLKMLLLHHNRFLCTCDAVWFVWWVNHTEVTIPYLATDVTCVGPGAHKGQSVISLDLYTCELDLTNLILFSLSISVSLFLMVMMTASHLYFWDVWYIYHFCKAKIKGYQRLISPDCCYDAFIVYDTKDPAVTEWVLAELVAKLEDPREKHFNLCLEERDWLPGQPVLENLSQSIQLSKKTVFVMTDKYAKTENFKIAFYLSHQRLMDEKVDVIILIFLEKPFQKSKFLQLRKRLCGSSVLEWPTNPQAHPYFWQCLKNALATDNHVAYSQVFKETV

CCCCc1nc2c(N)nc3cc(CCCN4CCN(C(=O)CCOCCOCCOCCOCCOCCOCCOCCOCCOCCOCCOCCOCCOCCOCCOCCOCCOCCOCCOCCOCCOCCOCCOCCOCCNC(=O)CCOCCOCCOCCOCCNC(=O)CCCOc5c(C)c(C)c6c(c5C)CC[C@@](C)(CCC[C@H](C)CCC[C@H](C)CCCC(C)C)O6)CC4)ccc3c2n1CC(C)(CO)CO [Compound 2, N-{75-[4-(3-{4-amino-2-butyl-1-[3-hydroxy-2-(hydroxymethyl)-2-methylpropyl]-1H-imidazo[4,5-c]quinolin-7-yl}propyl)piperazin-1-yl]-75-oxo-3,6,9,12,15,18,21,24,27,30,33,36,39,42,45,48,51,54,57,60,63,66,69,72-tetracosaoxapentaheptacont-1-yl}-17-oxo-20-({(2R)-2,5,7,8-tetramethyl-2-[(4R,8R)-4,8,12-trimethyltridecyl]-3,4-dihydro-2H-chromen-6-yl}oxy)-4,7,10,13-tetraoxa-16-azaicosan-1-amide]
EC50 [1]: 5.03 µM
EC50 [2]: 355 nM
